Article PMC6934184, “Selective DNA-PKcs inhibition extends the therapeutic index of localized radiotherapy and chemotherapy” (The Journal of Clinical Investigation, 2019)

Assays:
[1] = tested on: Huh7 subcutaneous xenografts; assay: subcutaneous Huh7 xenograft with intratumoral doxorubicin-eluting beads; format: in vivo, CD-1 nude mice
Description: DC M1 beads were loaded with doxorubicin at 25 mg/mL as described in Supplemental Methods. Huh7 cells (5 × 10^6 cells per mouse in 50 μL, 50% vol/vol Matrigel) were implanted s.c. into the right flank of female CD-1 nude mice to generate subcutaneous Huh7 xenografts (180–220 mm^3). Mice were then treated with 5 μL doxorubicin-loaded or unloaded beads suspended in 30 μL saline administered via an intratumoral injection along the length of each tumor using a 29G needle. One hour after bead implantation, twice-daily dosing with 30 mg/kg NU5455 or vehicle control (1% vol/vol acetic acid in water) was commenced via oral gavage (9-hour dosing interval) and continued for up to 20 days. Tumor volumes were calculated daily using bilateral caliper measurements as described in Supplemental Methods, and body weight measurements taken daily throughout treatment. […]
γH2AX immunohistochemistry in HCC tumor xenografts
FFPE tumor sections (4 µm) were dewaxed in xylene and hydrated in descending concentrations of ethanol. Endogenous tissue peroxidase activity was quenched using 3% v/v hydrogen peroxide. Antigen retrieval was performed using 1 mM EDTA, pH 8.0 in a microwave (Kenwood). Tissue sections were blocked for avidin and biotin using the […]
Avidin/Biotin Blocking Kit (Vector Laboratories), and washed in TBST be tween all subsequent steps. Slides were blocked in 20% v/v pig serum in DI water, and sections incubated with an antibody against γH2AX ( 20E3, Cell Signaling Technology #9718, 1 in 200 in TBST) in a humidified container at 4°C overnight.
Sections were th en incubated with polyclonal swine anti -rabbit IgG, biotinylated (Dako #E0353, 1 in 200 in TBST), followed by VectaStain RTU Elite ABC reagent (Vector Laboratories). Slides were stained using DAB Peroxidase Substrate Kit (Vector Laboratories) prepared according to the manufacturer’s instructions. Slides were washed in DI water, then counterstained in filtered haematoxylin s olution. Background staining was minimized by exposure to acid alcohol solution (1% v/v hydrochloric acid in 70% v/v ethanol, Fisher), and staining blued by incubation in Scott’s tap water. Stained slides were then dehydrated in ascending concentrations of ethanol, followed by clearing in xylene. Glass coverslips (Dako) were mounted onto slides using DPX mounting medium. pDNA-PKcs Ser2056 immunohistochemistry in HCC tumor xenografts
Tumor sections were dewaxed in xylene, hydrated, and endogenous peroxidase activity quenched as detailed above. Antigen retrieval was performed in 1X citrate buffer (10 mM citric acid (Acros), pH 6.0 + 0.5% v/v Tween 20), using a decloaker (A. Menarini Diagnostics).
Tissue sections were blocked in 1% w/v BSA and 1% v/v normal go at serum in PBS (1 hour, RT). Sections were then incubated at 4°C overnight in a humidified container with an antibody against pDNA -PKcs Ser2056 (Abcam #18192, 1:1000 in 1% w/v BSA and 1% v/v […]
Sections were washed with TBST before incuba tion with EnVision+ anti -rabbit Polymer-HRP solution (Dako #K4002). Slides were washed in TBST , and antibody conjugates visualized by incubation with ImmPACT DAB peroxidase substrate working solution. […]
IHC slides were digitized via conversion using the Aperio ScanScope CS Brightfield scanner (Leica Biosystems) at x20 zoom. Percentage hepatocyte nuclear positivity for pDNA -PKcs Ser2056 and γH2AX was determined using a nuclear algorithm generated with the Aperio ImageScope software v11.2.0.780 (Leica Biosystems). […]

[2] = plasma pharmacokinetics across mouse strains and doses; format: in vivo
Description: by determining the absorbance at 570 nm of SRB stain dissolved in Tris base (10 mM, pH 10.5) using a spectrophotometer (BMG Labtech).
In vivo pharmacokinetic analyses
All animal experiments were performed in accordance with the Animals (Scientific Procedures) 1986 Act. 8-9 week old mice were purchased from Charles River Laboratories and housed under specific pathogen-free conditions under 12 hour light/dark cycles.
Female CD-1, CD-1 nude, BALB/c nude and C57BL/6 mice were treated with NU5455 (30 or 100 mg/kg prepared in 1% (v/v) acetic acid or NMP:Encapsin (30% aq):PEG4000 (1:6:3 v/v/v) dosed by oral gavage. Blood samples were collected into heparinized tubes at 15, 30, 60, 180 and 360 minutes post-gavage.
Blood samples were centrifuged at 6700 x g for 3 minutes, the plasma removed and stored at -20°C prior to analysis for drug by HPLC with fluorescence detection. Aliquots of plasma (50 µl) were vigorously vortexed with acetonitrile (450 µl) and the precipitate removed by centrifugation at 6700 x g for 5 minutes. […]
Samples (20 µl) were applied to a 10 x 0.46 cm Genesis C18 4 µm column (Grace Vydac) fitted with an in-line filter. […] Analytes were detected by fluorescence at 390 nm following excitation at 242 nm. Plasma concentrations were determined using linear standard curves (0.01 µM – 10 µM, R2 > 0.98) generated by extracting compounds from […]

CN(C(=O)CN1CCOCC1)c1ccc2sc3c(-c4cccc5c(=O)cc(N6CC7CCC(C6)O7)oc45)cccc3c2c1 [NU5455]
DNA-PKcs phosphorylation (Ser2056) in tumors ([1]; 72 hours of treatment, doxorubicin-loaded beads, immunohistochemistry): reduced by NU5455 treatment | DNA damage (γH2AX) in area surrounding doxorubicin-eluting beads ([1]; 72 hours, immunohistochemistry): significantly augmented | mean RTV4 value, monotherapy ([1]; NU5455 30 mg/kg b.i.d. with unloaded beads, or doxorubicin beads with vehicle): 10.6 days | body weight or clinical condition versus vehicle alone ([1]; NU5455 30 mg/kg oral b.i.d. + doxorubicin-eluting beads): no additional impact | mean RTV4 value, combination ([1]; NU5455 30 mg/kg oral b.i.d. + intratumoral doxorubicin-eluting beads): 17.8 days | plasma pharmacokinetic profile, CD-1 nude versus C57BL/6 mice ([2]; 30 mg/kg oral): comparable | duration of plasma concentrations ([2]; 100 mg/kg oral, versus 30 mg/kg): longer duration
